The conditions of data set [1]: human, microsomes, 1 h, 100 µM.
For data set [2] the following is noted: human, 1 h, 100 µM.
The conditions of data set [3]: mouse, 1 h, 100 µM.
Data set [4] is described as follows: in vitro. The conditions noted are these: mouse, microsomes.
For data set [5] the following is noted: mouse, microsomes, 1 h, 100 µM.
Data set [6] is described as follows: in vitro. Particulars: human, microsomes.
The test system of data set [7] is A549. Kind of data set: Induction of apoptosis in human A549 cells assessed as dead cells at 10 uM incubated for 48 hrs by Annexin V-FITC/PI staining based flow cytometry analysis (reference value: 0.739%). The class given is functional.
Data set [8] concerns A549. Kind of data set: Induction of apoptosis in human A549 cells assessed as total apoptotic cells at 10 uM incubated for 48 hrs by Annexin V-FITC/PI staining based flow cytometry analysis (reference value: 2.86%). The class given is functional.
Data set [9] deals with A549. The experiment in a line: Induction of apoptosis in human A549 cells assessed as late apoptotic cells at 10 uM incubated for 48 hrs by Annexin V-FITC/PI staining based flow cytometry analysis (reference value: 2.15%). The class given is functional.
A further data set concerns HCT-116. Kind of data set: Antiproliferative activity against human HCT-116 cells assessed as cell growth inhibition incubated for 72 hrs by MTT assay. The format is functional.
The subject of data set [10] is A549. The experiment in a line: Induction of apoptosis in human A549 cells assessed as early apoptotic cells at 10 uM incubated for 48 hrs by Annexin V-FITC/PI staining based flow cytometry analysis (reference value: 0.708%). The class given is functional.
In data set [11] the test system is A549. The experiment in a line: Antiproliferative activity against human A549 cells assessed as cell growth inhibition incubated for 72 hrs by MTT assay. The class given is functional.
The subject of data set [12] is A549. Kind of data set: Induction of apoptosis in human A549 cells assessed as live cells at 10 uM incubated for 48 hrs by Annexin V-FITC/PI staining based flow cytometry analysis (reference value: 96.4%). The class given is functional.
The test system of another data set is PC-3. Kind of data set: Antiproliferative activity against human PC-3 cells assessed as cell growth inhibition incubated for 72 hrs by MTT assay. The class given is functional.
Data set [13] is described as follows: Stability in rat plasma assessed as compound remaining measured after 10 mins. The class given is ADME, cell-free. The conditions noted are these: read-out: Stability.
Data set [14] in a line: Stability in rat plasma assessed as compound remaining measured after 30 mins. The conditions noted are these: read-out: Stability. The class given is ADME, cell-free.
Data set [15] is described as follows: Stability in rat plasma assessed as half life. The class given is ADME, cell-free.
Data set [16] can be described thus: Stability in rat plasma assessed as compound remaining measured after 60 mins. The class given is ADME, cell-free. The conditions noted are these: read-out: Stability.
Data set [17] can be described thus: Stability in rat plasma assessed as compound remaining measured immediately. The class given is ADME, cell-free. Particulars: read-out: Stability.
Data set [18] in a line: Stability in rat plasma assessed as compound remaining measured after 120 mins. The format is ADME, cell-free. Particulars: read-out: Stability.
Data set [19] has as its system A549. The experiment in a line: Induction of apoptosis in human A549 cells assessed as upregulation of BAX translocation at 20 uM incubated for 24 hrs by Western blot analysis. The class given is functional, cell-based.

The source made the active and inactive calls. The calls are words filed in the database; no cut-off is given here.

Compound `C[C@]12CC[C@H]3[C@@H](CCC4=CC(=O)CC[C@@]43C)[C@@H]1CC[C@@H]2O` [TESTOSTERONE] registered a CLint in [1] of 106 µL/min/mg. The CLH in data set [2] stood at 95.5 mL/min/kg; in [3] it was 1.4374 mL/min/kg.
Consider `O=C(O)Cc1ccccc1Nc1c(Cl)cccc1Cl` [DICLOFENAC], for which the CLint in data set [1] turned out to be 203 µL/min/mg; in data set [5] it was 29.7 µL/min/mg. Moreover, the half-life at 1 h, 100 µM in “in vitro [4]” worked out at 46.7 min; in the data set “in vitro [6]” it was 6.8 min. For the same compound, the CLH in data set [2] (Liver) is 183 mL/min/kg; in data set [3] (Liver), 0.1176 mL/min/kg.
For the compound `N[C@@H]1CCCN(C(=O)c2ccc(N3N=C(c4ccccc4)/C(=N/Nc4ccccc4)C3=O)cc2)C1`, the Activity came to 0.814% in the data set on A549 [7]; 11.8% in the data set with A549 [8]; 3.21% in the data set on A549 [9]; 8.59% in the data set with A549 [10]; 6.22% in the data set on A549 [12]. For the same compound, the GI50 in the data set with HCT-116 was 2.96 µM; in the data set with A549 [11], 8.38 µM; in the data set on PC-3, 5.39 µM.
Turning to `CCOC(=O)[C@H](CCc1ccccc1)N[C@@H](C)C(=O)N1CCC[C@H]1C(=O)O.O=C(O)/C=C\C(=O)O` [ENALAPRIL MALEATE], the remaining at 10 min in data set [13] came to 58.9%. For the same compound, in [14], the remaining at 0.5 h was determined as 19.2%. Moreover, in [15], the half-life was found to be 10 min. Further, the remaining at 1 h in [16] turned out to be 2.7%. Moreover, the remaining at 0 min in data set [17] worked out at 100%. Besides, in [18], the remaining at 2 h turned out to be 0%.
For `COc1cc(N/N=C2\C(=O)N(c3ccc(C(=O)N4CCC(N(C)C)CC4)cc3)N=C2c2ccccc2)ccc1F`, the Activity in the data set with A549 [7] is 2.85%; in the data set on A549 [8] it was 61.8%; with A549 [9], 22.2%; in the data set on A549 [10] it was 39.6%; in the data set on A549 [12], 35.4%. The figures for the concentration for 50% growth inhibition (GI50) in the data set on HCT-116, with A549 [11] and with PC-3 were 3.37 µM, 2.79 µM and 3.94 µM, respectively. Besides, the result in the data set with A549 [19] was Active.
For `CC1=NN(c2ccc(C(=O)N3CCC(N(C)C)CC3)cc2)C(=O)/C1=N\Nc1ccccc1`, the Activity in the data set on A549 [7] was 4.37%; in the data set on A549 [8], 13.3%; in the data set on A549 [9], 1.57%; in the data set on A549 [10], 11.7%; in the data set on A549 [12], 82.4%. For the same compound, the GI50 was found to be 3.42 µM with HCT-116, 8.99 µM in the data set on A549 [11] and 4.94 µM with PC-3.
As to `CN(C)C1CCN(C(=O)c2ccc(N3N=C(c4ccccc4)/C(=N/Nc4ccc(O)cc4)C3=O)cc2)CC1`, the Activity in the data set with A549 [7] was found to be 2.33%; with A549 [8], 76.2%; in the data set on A549 [9] it was 16.2%; in the data set with A549 [10], 60%; with A549 [12], 21.5%. For the same compound, the values for the GI50 in the data set with HCT-116, in the data set with A549 [11] and in the data set with PC-3 were 2.67 µM, 2.19 µM and 3.04 µM, respectively. Moreover, the outcome with A549 [19] was Active.
In the case of `CN(C)C1CCN(C(=O)c2ccc(N3N=C(c4ccccc4)/C(=N/Nc4cc(C(F)(F)F)cc(C(F)(F)F)c4)C3=O)cc2)CC1`, the Activity in the data set with A549 [7] was 0.996%; in the data set with A549 [8], 44.8%; in the data set on A549 [9] it was 10.1%; with A549 [10] it was 34.7%; with A549 [12], 54.3%. Besides, the GI50 in the data set with HCT-116 was 1.76 µM; with A549 [11], 4.54 µM; in the data set on PC-3 it was 1.15 µM.
